Laboratory results taken from US4039550A, “Lower-alkyl (5-substituted-2-pyridyl)carbamodithioates” (Sterling Drug Inc., priority 1976, dated 1977).

Key:
[1] = system: N. dubius; assay: Anthelmintic single-dose test in mice against N. dubius (S.D. and ED50); assay type: in vivo, Nematospiroides dubius in Swiss mice; details: for ED50: Heligmosomoides polygyrus, against N. dubius, single oral dose, dose necessary to remove 50% of the worm burden, read-out: ED50 on single dose administration
Method: (§1) Anthelmintic activity was determined in mice against one species of roundworm (Nematospiroides dubius), one species of pinworm (Syphacia obvelata) and one species of tapeworm (Hymenolepis nana). The various test procedures used are described as follows: Swiss mice weighing approximately 20 grams were infected with approximately 20 larvae of N. dubius which were administered in 10% gelatin via stomach tube. For screening purposes, compounds, made up in 10% galatin, were administered via stomach tube in equally divided daily doses for four consecutive days beginning fourteen days after infection. Four days after the final medication, the animals were sacrificed and examined for the presence of worms. Efficacy against N. dubius was judged on the basis of percent worm reduction compared to control non-medicated mice. In addition, for the purpose of evaluation, the compounds were administered orally to a series of animals at graded doses, each animal receiving a single dose, and the results against N. dubius expressed in terms of an Effective Dose50 (ED50), the ED50 representing the dose necessary to remove 50% of the worm burden.
(§2) Data obtained in anthelmintic screening tests against the helminth infections, N. dubius (a), H. nana (b) and S. obvelata (c), are given in the table below. Results are expressed in terms of the percent of animals cleared at a standard dose of 200 mg./kg./day (p.o.) for four days; as percent of animals cleared at a single dose (S.D.) of 25 mg./kg.; or as an ED50 on single dose administration (ED50) against N. dubius.

[2] = system: H. nana; assay: Anthelmintic screening in mice against H. nana (tapeworm), four-day medication; assay type: in vivo, Hymenolepis nana in Swiss mice; details: 200 mg./kg./day p.o. for four days
Method: In tests against the tapeworm, H. nana, Swiss mice weighing approximately 20 grams were infected with approximately 12,000 ova of H. nana administered in 10% gelatin via stomach tube. The test compounds, made up in 10% gelatin, were administered via stomach tube in equally divided doses daily for four consecutive days beginning twelve days after infection. Four days after the final medication, the animals were sacrificed and examined for the presence of worms. Efficacy was judged by the percent of mice cleared compared to non-medicated control mice.
as §2

[3] = system: N. dubius; assay: Anthelmintic screening in mice against N. dubius (roundworm), four-day medication; assay type: in vivo, Nematospiroides dubius in Swiss mice; details: 200 mg./kg./day p.o. for four days
Method: as §1, §2

[4] = system: S. obvelata; assay: Anthelmintic screening in mice against S. obvelata (pinworm), four-day medication; assay type: in vivo, Syphacia obvelata in Swiss mice; details: 200 mg./kg./day p.o. for four days
Source text: The same test procedures described above were used to assess the effectiveness of the compounds against S. obvelata, a naturally occurring pinworm infection in Swiss mice. Efficacy was judged by the percent of mice cleared of the infection compared to non-medicated control mice.
as §2

[5] = system: bacteria; details: Foye et al., J. Am. Pharm. Assoc. 47, 556-558 (1958); cited from earlier work

SMILES | ED50 [1] | % Cleared/200 mg./kg. (b) [2] | % Cleared/200 mg./kg. (a) [3] | % Cleared/200 mg./kg. (c) [4] | anti-bacterial activity [5] | S.D. (percent of animals cleared at a single dose) ([1]; single dose of 25 mg./kg., mice)
CSC(=S)Nc1ccc(C)cn1 [Example 2, methyl (5-methyl-2-pyridyl)carbamodithioate] | 7.75 ± 3.54 mg/kg | 30% | 100% | 30% |  | 
CCSC(=S)Nc1ccccn1 [Ethyl (2-pyridyl)-carbamodithioate] |  |  |  |  | active as an anti-bacterial agent | 
CSC(=S)Nc1ccc(Cl)cn1 [Example 1, methyl (5-chloro-2-pyridyl)carbamodithioate] | 2 ± 0.917 mg/kg | 80% | 100% | 40% |  | 
CSC(=S)Nc1ccc(N(C)C)cn1 [Example 3, methyl (5-dimethylamino-2-pyridyl)carbamodithioate] |  | 0% | 100% | 0% |  | 64.5%
